Legend:
[1] = tested on: normal human bone marrow stromal cells (MSC); assay: human bone marrow stromal cell (MSC) proliferation in response to PDGF BB and IL-1α; type: cell-based; details: Table III, PDGF BB 50 ng/ml and IL-1α 10 ng/ml
Protocol: This example illustrates the effects of inventive compounds nos. 1114, 1413, 1560, 1565, 1594, 2518, 2548R, 2548S and 3503 as effective inhibitors of normal human bone marrow stromal cells (MSC) proliferation in response to Platelet Derived Growth Factor BB (PDGF B) and IL-1α (50 and 10 ng/ml, respectively).
MSC were obtained and malintained in exponential growth, released from a growth plate with trypsin and plated into 96 well tissue culture plates in the presence of Fibroblast Growth Factor (FGFβ) for 48 hours. Growth media were removed and the cells were washed once with serum free media. The cells were then incubated 20-24 hours in serum free media.
After incubation, inventive compounds were added to the cells at the appropriate concentration and then the cells again incubated for 1 hour. PDGF B and IL-1α were added to the cells along with 3H-thymidine and the cells again incubated for an additional 24 hours.
After 24 hours of incubation, the cells were then harvested to assess incorporation of ^3 H-thymidine into DNA (proliferation). From each harvested cell culture, an IC-50 for each inventive compound tested was determined. Therefore, a lower reported IC-50 value is indicatilve of greater activity of the invention compounds in inhibiting MSC proliferation. Table III illustrates IC-50 values (in μM) for invention compounds inhibiting MSC proliferation at very low concentrations of compound.

thymocytes = assay: murine thymocyte proliferation assay co-stimulated by ConA and IL-2 (FIGS. 7A-7E); type: cell-based, Balb/C mice; details: Mus musculus
Excerpt: This example illustrates dose response curves used to generate 50% inhibition concentrations (IC50) for inventive compounds nos. 1410, 1439, 1541, 1553, 1553S, 1560, 1565, 2548R, 2548S and 2562 in a murine thymocyte proliferation assay, co-stimulated by Concanavalin A (ConA) and interleukin-2 alpha (IL-2). ConA, used to activate the T-cell receptor (TCR), along with IL-2 co-stimulation, induces T-cell proliferation and differentiation. Thymuses, obtained from normal, female Balb/C mice, were dissociated and plated into 96-well plates at a density of 2×10^5 cells/well. ConA (0.25 mg/ml) and IL-2 (15 U/ml) were added to the wells. The cells were incubated for 4 days at 37° C. On day 4, the cells were pulsed with tritiated thymidine and incubated for an additional 4 hours. The amount of tritiated thymidine incorporated by the harvested cells was determined in a liquid scintillation counter. Doses of inventive compounds (shown in FIGS. 7A-7E) were added two hours prior to ConA and IL-2 activation. Background counts were less than 200 cpm. Results obtained, illustrate the ability of the inventive compounds to inhibit thymocyte proliferation and activation. In FIG. 7A, inventive compounds nos. […] FIG. 7B presents additional data for compound no. 1410 and 1553S in this assay. […] FIG. 7C reports assay results for inventive compounds nos. 1439, 1541, 1560 and 1565. […] FIGS. 7D and 7E illustrate assay results for inventive compounds nos. 1541, 1553, 1560 and 1565 (FIG. 7D) and 2562, […] (FIG. 7E). As is true of other inventive compounds tested, all these compounds represented in FIGS. 7D and 7E inhibit thymocyte proliferation. […] 1541, 1553, 1560, 1565, 2562, 2548R and 2548S, respectively.

Balb/3T3 cells = assay: Balb/3T3 cytotoxicity assay (BCECF-AM); type: cell-based; details: FIGS. 8C, 8D
Protocol: In conjuction with the Balb/3T3 proliferation assay conducted above, a Balb/3T3 cytotoxicity assay was conducted to determine that the inhibition on proliferation was not due to cytotoxic effects. This assay is similar to the assay decribed above except tritiated thymidine was not added and after 18-24 hours incubation with PDGF/BB and a lOuM solution of 2,7-bis-(2-carboxyethyl)-5(and-6)carboxyflouresceinacetoxymethyl ester (BCECF-AM) was added for 30 minutes at 37° C. (BCECF is a compound that when cleaved by esterases, yields a fluorescent product in viable cells only, therefore providing a measure of viable cell numbers). Following sufficient incubation, BCECF is replaced with PBS and the plate examined with flourescence in a Millipore "cytofluor." The data is compiled and plotted.

lymph node cells = assay: ovalbumin-induced proliferation in murine lymph cells (FIG. 13); type: cell-based, Balb/C mice; details: Mus musculus, OVA 200 μg/ml
Excerpt: This example illustrates effects of the inventive compounds on ovalbumin-induced proliferation in murine lymph cells. Lymphnode cells contain a mixture of lymphoid cells: T-cells, B-cells and macrophages. Although proliferating cells in this assay are T-cells, the response obtained depends on type of antigen-presenting cell (e.g., macrophages) as well as elaboration of various immunoregulatory cytokines. Thus, this assay serves as a good model for T-cell mediated responses and as a valuable screening tool in identifying compounds useful in immunosuppressive therapeutic applications.
Murine T-cells proliferate in vitro in response to a soluble protein antigen if first primed with a corresponding antigen in vivo. This in vivo priming usually involves emulsifying the antigen in complete Freunds adjuvant and injecting this preparation into an appropriate site on a mouse. In this assay the antigen employed was chicken ovalbumin(OVA). Following emulsification in Freund's complete adjuvant, 50 μg of OVA were injected into both hind footpads of adult Balb/C mice. Fourteen days later the draining lymph nodes(popliteal) were removed and a single cell suspension was prepared in RPMI-1640 (10%FCS) medium. Two hundred thousand lymph node cells are then plated into wells of flat-bottom 96-well plates. Inventive compouds nos. 1410, 1553 (racemic), 1553(S), 1560 and 1565 were added to appropriate wells at various concentrations. OVA, at a final concentration of 200 μg/ml, was added to appropriate wells. Positive and negative controls were established on each plate, all assay variables being set up in quadruplicate.
The plates were incubated in a humidified, 5% CO2 incubator for 5 days. On the fifth day, 1 μCi of tritiated thymidine was added to each well and the plates were incubated for an additional 4 hours. The plates were harvested and the incorporation of 3H-TdR was determined in a liquid scintillation counter. The CPM data was then used to calculate experimental IC50 values for the compounds tested. Again, IC50 is defined as that concentration of compound resulting in 50% inhibition of 3H-TdR incorporation of the positive control.

SMILES: Cn1cnc2c1c(=O)n(CCCCCCCC1CO1)c(=O)n2C (centres unmarked) [Compound 1560, 1-(8,9-Oxidononyl)-3,7-dimethylxanthine]
- IC50 [1]: 6.6 µM
- IC50 (thymocytes; FIG. 7C): 22 µM
- IC50 (thymocytes; FIGS. 7D and 7E): 14 µM
- cytotoxic effects (Balb/3T3 cells): without exhibiting cytotoxic effects
- IC50 (lymph node cells): 34 µM

From US5866576A, “Epoxide-containing compounds” (Cell Therapeutics, Inc., priority 1997, dated 1999)
